Measurements taken from patent US20050250709A1, “Anti-neoplastic agents, combination therapies and related methods” (Bionaut Pharmaceuticals, priority 2003, published 2005).
Counter-ions that a name gives are not always drawn.

How the values were obtained:
LnCap/Prostate = assay: anti-proliferative effect, LnCap prostate cancer cell line; type: cell-based; conditions: Homo sapiens
Text: (§1) The inhibition of reporter activity was later correlated with an anti-proliferative effect in representative colon, lung, prostate, cervical, renal, uterine, breast, and pancreatic cancer cell lines as shown in table 1.

MES-SA-DX5/Uterine = assay: anti-proliferative effect, MES-SA-DX5 uterine cancer cell line; type: cell-based; conditions: Homo sapiens
Text: as §1

PC3/Prostate = assay: anti-proliferative effect, PC3 prostate cancer cell line; type: cell-based
Text: as §1

DU-145/Prostate = assay: anti-proliferative effect, DU-145 prostate cancer cell line; type: cell-based; conditions: Homo sapiens
Text: as §1

A549/Lung = assay: anti-proliferative effect, A549 lung cancer cell line; type: cell-based; conditions: Homo sapiens
Text: as §1

HCT-116/Colon = assay: anti-proliferative effect, HCT-116 colon cancer cell line; type: cell-based; conditions: Homo sapiens
Text: as §1

[1] = test system: EGF, HIF responsive cell line (HIF-responsive reporter gene); assay: reporter gene assay in EGF, HIF responsive cancer cell line; type: cell-based; conditions: for effect on regulated reporter gene expression (screen): single agents, screen of thousands of compounds
Experimental: (§2) Cancer cell lines (Panc1, for pancreatic cancer, and A549 for non-small cell lung carcinoma) were transfected with the construct depicted in FIG. 1. The retroviral vector contained a […] gene (a negative selection marker), a zeocin resistance marker (a positive selection marker) and a gene encoding beta-galactosidase “β-gal”, as a reporter gene.
(§3) Cells were grown to a significant cell density and exposed to zeocin, so as to select for cells expressing the zeocin marker in the presence of high levels of extracellular signaling. […] Under these conditions, cells were exposed to an agent such as ganciclovir that causes lethality in TK+ cells. This selection step eliminated those cells containing a nucleic acid construct that is expressed at significant levels even in low extracellular signaling conditions. The resulting cells were then used for further study.
An EGF, HIF responsive cell line was screened for compounds affecting the regulated gene expression. Thousands of compounds were screened.

[2] = test system: several different cancer cell lines; assay: proliferation of cancer cell lines (several lines, summary); type: cell-based; conditions: range over cell lines, read-out: IC50 across several different cancer cell lines
Experimental: The IC50 measured for ouabain across several different cancer cell lines ranged from about 80 nM to about 300 nM. The concentration at which a cardiac glycoside is effective as part of an antiproliferative treatment may be further decreased by combination with an additional agent that negatively regulates HIF-responsive genes, such as a redox effector or a steroid signal modulator. For example, as shown herein, the concentration at which a cardiac glycoside (ouabain) is effective for inhibiting proliferation of cancer cells is decreased 5-fold by combination with a steroid signal modulator (Casodex). Therefore, in certain embodiments, the invention provides combination therapies of cardiac glycosides with, for example, steroid signal modulators and/or redox effectors. Additionally, cardiac glycosides may be combined with radiation therapy, taking advantage of the radiosensitizing effect that many cardiac glycosides have.

MCF-7/Breast = assay: anti-proliferative effect, MCF-7 breast cancer cell line; type: cell-based; conditions: Homo sapiens, MCF7
Text: as §1

Caki-1/Renal = assay: anti-proliferative effect, Caki-1 renal cancer cell line; type: cell-based; conditions: Homo sapiens
Text: as §1

MES-SA/Uterine = assay: anti-proliferative effect, MES-SA uterine cancer cell line; type: cell-based; conditions: Homo sapiens
Text: as §1

HT-29/Colon = assay: anti-proliferative effect, HT-29 colon cancer cell line; type: cell-based; conditions: Homo sapiens
Text: as §1
The ouabain concentration required to achieve an antiproliferative effect in cells of the HT29 colon cancer cell line (FIG. 20) is decreased five-fold in the presence of bicalutamide (Casodex).

C-33A/Cervical = assay: anti-proliferative effect, C-33A cervical cancer cell line; type: cell-based; conditions: Homo sapiens
Text: as §1

Panc-1 = assay: anti-proliferative effect, Panc-1 pancreatic cancer cell line; type: cell-based; conditions: Homo sapiens; Panc-1, anti-proliferative
Text: as §1

SK-MES/Lung = assay: anti-proliferative effect, SK-MES lung cancer cell line; type: cell-based
Text: as §1

HIF-2α protein = assay: level of HIF-2α protein in cancer cells; type: cell-based
[3] = test system: EGF-responsive gene expression; assay: EGF-responsive gene expression in recovered reporter cell lines; type: cell-based
Experimental: as §2
as §3, with “signaling. Cells were also exposed to a growth factor, such as EGF, insulin or IGF, although in some instances, the growth factor had only minor effects on gene expression compared to the generalized effect of extracellular signaling. The selected cell cultures were greatly depleted of cells by zeocin treatment, as the vast majority of cells were eliminated by the zeocin.” for “signaling.”
FIGS. 3 through 9 depict the results from a series of experiments characterizing the recovered cell lines. […]

SMILES: C[C@@H]1O[C@@H](O[C@H]2C[C@@H](O)[C@]3(CO)[C@H]4[C@H](O)C[C@]5(C)[C@@H](C6=CC(=O)OC6)CC[C@]5(O)[C@@H]4CC[C@]3(O)C2)[C@H](O)[C@H](O)[C@H]1O [Ouabain, ouabain]
- IC50 (LnCap/Prostate): 150 nM
- IC50 (MES-SA-DX5/Uterine): 80 nM
- IC50 (PC3/Prostate): 150 nM
- IC50 (DU-145/Prostate): 300 nM
- IC50 (A549/Lung): 300 nM
- IC50 (HCT-116/Colon): 150 nM
- required dose for inhibition of reporter activity relative to cardiotonic dose [1]: well below the dose required for ouabain as a cardiotonic agent
- effect on regulated reporter gene expression (screen) [1]: effective
- IC50 [2]: 80 to 300 nM
- IC50 (MCF-7/Breast): 100 nM
- IC50 (Caki-1/Renal): 150 nM
- IC50 (MES-SA/Uterine): 80 nM
- IC50 (HT-29/Colon): > 800 nM
- IC50 (C-33A/Cervical): 100 nM
- IC50 (Panc-1): 150 nM
- IC50 (SK-MES/Lung): 100 nM

SMILES: Clc1ccc(COC(Cn2ccnc2)c2ccc(Cl)cc2Cl)cc1 (stereo not drawn) [econazole nitrate]
- effect on regulated reporter gene expression (screen) [1]: effective

SMILES: C[C@H]1O[C@@H](O[C@H]2[C@@H](O)C[C@H](O[C@H]3[C@@H](O)C[C@H](O[C@H]4CC[C@@]5(C)[C@H](CC[C@@H]6[C@@H]5C[C@@H](O)[C@]5(C)[C@@H](C7=CC(=O)OC7)CC[C@]65O)C4)O[C@@H]3C)O[C@@H]2C)C[C@H](O)[C@@H]1O [digoxin]
- effect on regulated reporter gene expression (screen) [1]: effective

SMILES: O=C(Nc1ccc([N+](=O)[O-])cc1Cl)c1cc(Cl)ccc1O [Niclosamide, niclosamide]
- IC50 (LnCap/Prostate): 2000 nM
- IC50 (MES-SA-DX5/Uterine): 6000 nM
- IC50 (PC3/Prostate): 5000 nM
- level of HIF-2α protein (HIF-2α protein): decrease
- IC50 (DU-145/Prostate): 5000 nM
- IC50 (A549/Lung): 1500 nM
- IC50 (HCT-116/Colon): 800 nM
- effect on regulated reporter gene expression (screen) [1]: effective
- serum half-life (serum half-life): short
- IC50 (MCF-7/Breast): 2500 nM
- IC50 (Caki-1/Renal): 1500 nM
- IC50 (MES-SA/Uterine): 9000 nM
- IC50 (HT-29/Colon): 8000 nM
- IC50 (C-33A/Cervical): 5000 nM
- IC50 (Panc-1): 5000 nM
- IC50 (SK-MES/Lung): 2000 nM

SMILES: OC(c1cc(C(F)(F)F)nc2c(C(F)(F)F)cccc12)C1CCCCN1 (stereo not drawn) [mefloquine hydrochloride]
- effect on regulated reporter gene expression (screen) [1]: effective

SMILES: CC(=O)O[C@H]1C[C@H](O[C@H]2[C@@H](O)C[C@H](O[C@H]3[C@@H](O)C[C@H](O[C@H]4CC[C@@]5(C)[C@H](CC[C@@H]6[C@@H]5C[C@@H](O)[C@]5(C)[C@@H](C7=CC(=O)OC7)CC[C@]65O)C4)O[C@@H]3C)O[C@@H]2C)O[C@H](C)[C@H]1O[C@@H]1O[C@H](CO)[C@@H](O)[C@H](O)[C@H]1O [lanatoside C]
- effect on regulated reporter gene expression (screen) [1]: effective

SMILES: C/C=C(/C(=C/C)c1ccc(O)cc1)c1ccc(O)cc1 [dienestrol]
- effect on regulated reporter gene expression (screen) [1]: effective

SMILES: CC(C)/N=c1\cc2n(-c3ccc(Cl)cc3)c3ccccc3nc-2cc1Nc1ccc(Cl)cc1 [clofazimine]
- effect on regulated reporter gene expression (screen) [1]: effective

SMILES: CC1=CC(=O)c2ccccc2C1=O [menadione]
- effect on regulated reporter gene expression (screen) [1]: effective

SMILES: Clc1ccccc1C(c1ccccc1)(c1ccccc1)n1ccnc1 [clotrimazole]
- effect on regulated reporter gene expression (screen) [1]: effective

SMILES: CCCCC(CC)CNC(=N)NC(=N)NCCCCCCNC(=N)NC(=N)NCC(CC)CCCC (stereo not drawn) [alexidine dihydrochloride]
- effect on regulated reporter gene expression (screen) [1]: effective

SMILES: CC/C(=C(/CC)c1ccc(O)cc1)c1ccc(O)cc1 [diethylstilbestrol]
- effect on regulated reporter gene expression (screen) [1]: effective

SMILES: CCCC(C(=O)OCCN(CC)CC)(c1ccccc1)c1ccccc1 [proadifen hydrochloride]
- effect on regulated reporter gene expression (screen) [1]: effective

SMILES: COc1cc2ncnc(Nc3ccc(F)c(Cl)c3)c2cc1OCCCN1CCOCC1 [Iressa]
- EGF-responsive gene expression [3]: inhibited

SMILES: C[C@]12CC[C@H](O)C[C@H]1CC[C@@H]1[C@@H]2CC[C@]2(C)[C@@H](C3=CC(=O)OC3)CC[C@]12O [digitoxigenin]
- effect on regulated reporter gene expression (screen) [1]: effective
